Experimental data reported in the supplement of paper PMC5579334.
± gives the standard deviation of the averaged measurements.

Tests used:
[1] = test system: HSC2 (primary human Schwann cells); experiment: drug sensitivity score (DSS, CellTiter-Glo viability, 72 h) (DSS (dimensionless)); higher = more sensitive; extreme values may be limits of the assay
Outline: (§1)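 MPNST cell lines and primary human Schwann cells were seeded at 750–1000 cells per well into 384-well plates preprinted with each compound at five concentrations in 10-fold steps, then incubated 72 h at 37 °C, 5% CO2. CellTiter-Glo ATP luminescence gave viability, scaled between vehicle and positive-control wells, with duplicates averaged where present. Curves were fitted with a four-parameter logistic model. Percent inhibition refers to the top concentration, while drug sensitivity score and relative IC50, censored at the top concentration, come from these fits.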

[2] = test system: STS26T; experiment: as above
Outline: as §1

[3] = test system: S1507-2; experiment: as above
Outline: as §1

[4] = test system: HSC1 (primary human Schwann cells); experiment: as above
Outline: as §1

[5] = test system: YST-1; experiment: as above
Outline: as §1

[6] = test system: HS-PSS; experiment: as above
Outline: as §1

[7] = test system: HS-Sch-2; experiment: as above
Outline: as §1

[8] = test system: S462; experiment: as above
Outline: as §1

[9] = test system: ST8814; experiment: as above
Outline: as §1

[10] = test system: HSC2 (primary human Schwann cells); experiment: % inhibition of CellTiter-Glo viability at highest tested concentration (72 h), relative to DMSO and benzethonium chloride controls; higher = more inhibition
Outline: as §1

[11] = test system: STS26T; experiment: as above
Outline: as §1

[12] = test system: S1507-2; experiment: as above
Outline: as §1

[13] = test system: HSC1 (primary human Schwann cells); experiment: as above
Outline: as §1

[14] = test system: YST-1; experiment: as above
Outline: as §1

[15] = test system: HS-PSS; experiment: as above
Outline: as §1

[16] = test system: HS-Sch-2; experiment: as above
Outline: as §1

[17] = test system: S462; experiment: as above
Outline: as §1

[18] = test system: ST8814; experiment: as above
Outline: as §1

[19] = test system: HSC2 (primary human Schwann cells); experiment: drug sensitivity score (DSS, CellTox-Green cytotoxicity, 72 h) (DSS (dimensionless)); higher = more cytotoxic; extreme values may be limits of the assay
Outline: (§2)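 For 72 h at 37 °C, MPNST cell lines and primary human Schwann cells were exposed in 384-well plates to five 10-fold compound dilutions. CellTox-Green, added before seeding at a final 1:1000 dilution, gave fluorescence from DNA released by disrupted cells. Signals were scaled to vehicle and positive-control wells, cultures failing plate quality control were left out, and four-parameter logistic fits were applied. Relative IC50 and drug sensitivity score were derived from the fits, with IC50 censored at the top concentration.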

[20] = test system: STS26T; experiment: as above
Outline: as §2

[21] = test system: S1507-2; experiment: as above
Outline: as §2

[22] = test system: HSC1 (primary human Schwann cells); experiment: as above
Outline: as §2

[23] = test system: HS-PSS; experiment: as above
Outline: as §2

[24] = test system: ST8814; experiment: as above
Outline: as §2

| Structure (SMILES) | drug sensitivity score [1] | drug sensitivity score [2] | drug sensitivity score [3] | drug sensitivity score [4] | drug sensitivity score [5] | drug sensitivity score [6] | drug sensitivity score [7] | drug sensitivity score [8] | drug sensitivity score [9] | % inhibition [10] [%] | % inhibition [11] [%] | % inhibition [12] [%] | % inhibition [13] [%] | % inhibition [14] [%] | % inhibition [15] [%] | % inhibition [16] [%] | % inhibition [17] [%] | % inhibition [18] [%] | drug sensitivity score [19] | drug sensitivity score [20] | drug sensitivity score [21] | drug sensitivity score [22] | drug sensitivity score [23] | drug sensitivity score [24] |
| --- | --- | --- | --- | --- | --- | --- | --- | --- | --- | --- | --- | --- | --- | --- | --- | --- | --- | --- | --- | --- | --- | --- | --- | --- |
| CNC(=O)c1cc(Oc2ccc(NC(=O)Nc3cc(C(C)(C)C)nn3-c3ccc4ncccc4c3)c(F)c2)ccn1 [Rebastinib] (max concentration tested 1000 nM) | 0 | 0 | 0 | 0 | 0 | 0 | 0 | 0 | 0 | -5.07 | -1.27 | -4.17 ± 6.4 | 0.317 | 0.76 | -1.59 | -12.3 | -0.0982 ± 1.4 | -2.38 | 0 | 0 | 0 | 0 | 0 | 0 |
| Sc1ncnc2nc[nH]c12 [Mercaptopurine] (max concentration tested 10000 nM) | 0 | 7.5 | 0 | 0 | 0.53 | 1.06 | 7.89 | 5.81 ± 1.6 | 10.2 | 3.85 | 74.5 | 7.52 ± 1.2 | -2.23 | 13.2 | 18.8 | 59.9 | 62.5 ± 20 | 43.7 | 0 | 0.135 | 0 | 0 | 0 | 0 |
| CCS(=O)(=O)c1cccc(-c2cc(C(=O)NC3CCN(C)CC3)c(C)c3[nH]c4ncc(C)cc4c23)c1 [TAK-901] (max concentration tested 1000 nM) | 8.24 | 7.82 | 1.99 ± 0.39 | 7.19 | 10.1 | 5.46 | 3.76 | 8.66 ± 0.25 | 3.64 | 65.6 | 69.6 | 23.5 ± 3.2 | 63.8 | 76.6 | 57.5 | 70.3 | 80.6 ± 2.5 | 57.6 | 11 | 6.2 | 0 | 0.0275 | 0 | 5.81 |
| COC1=CC(c2cc3ccccc3[nH]2)=N/C1=C\c1[nH]c(C)cc1C [Obatoclax] (max concentration tested 10000 nM) | 8.2 | 5.87 | 7.89 ± 1.2 | 8.07 | 2.23 | 2.94 | 2.53 | 7.25 ± 0.51 | 5.7 | 81.8 | 81.5 | 95.5 ± 2 | 80.1 | 25.6 | 39.5 | 31.2 | 89.3 ± 2.9 | 93.7 | 2.43 | 3.1 | 5.25 ± 0.56 | 4.21 | 0 | 4.99 |
| Cn1c(Nc2ccc(C(F)(F)F)cc2)nc2cc(Oc3ccnc(-c4ncc(C(F)(F)F)[nH]4)c3)ccc21 [RAF265] (max concentration tested 1000 nM) | 14.4 | 3.93 | 4.23 ± 0.6 | 11.2 | 2.73 | 4.44 | 1.56 | 5.79 ± 0.67 | 3.46 | 68.9 | 40.9 | 43.6 ± 6 | 70.8 | 30.2 | 52.2 | 22.3 | 51.9 ± 1.2 | 33.1 | 0 | 0 | 0 | 0 | 0 | 0 |
| Nc1cccc2c1C(=O)N(C1CCC(=O)NC1=O)C2=O (configuration not stated) [Pomalidomide] (max concentration tested 10000 nM) | 0 | 0 | 0 | 0 | 0 | 0 | 0 | 0.575 ± 0.81 | 0 | -10.6 | 2.08 | -0.849 ± 0.56 | 8.79 | -0.59 | -13.4 | -6.26 | 8.99 ± 10 | 8.53 | 0 | 0 | 0.571 ± 0.72 | 0 | 0 | 0 |
| COc1cc(O)c2c(c1)/C=C/C[C@H](O)[C@H](O)C(=O)/C=C\C[C@H](C)OC2=O [(5Z)-7-Oxozeaenol] (max concentration tested 10000 nM) | 7.92 | 6.93 | 3.4 ± 0.83 | 6.52 | 1.67 | 1.02 | 2.24 | 6.71 ± 1.1 | 7.1 | 76.9 | 68.6 | 51.8 ± 16 | 73.1 | 26.6 | 29.8 | 39.8 | 74.1 ± 6.8 | 70.6 | 1.01 | 2.39 | 2.79 ± 3 | 0.659 | 0 | 0.979 |
| CO[C@H](C(=O)[C@@H](O)[C@@H](C)O)[C@@H]1Cc2cc3cc(O[C@H]4C[C@@H](O[C@H]5C[C@@H](O)[C@H](O)[C@@H](C)O5)[C@@H](O)[C@@H](C)O4)c(C)c(O)c3c(O)c2C(=O)[C@H]1O[C@H]1C[C@@H](O[C@H]2C[C@@H](O[C@H]3C[C@](C)(O)[C@H](O)[C@@H](C)O3)[C@H](O)[C@@H](C)O2)[C@H](O)[C@@H](C)O1 [Plicamycin] (max concentration tested 10000 nM) | 24.6 | 27 | 22.5 ± 0.9 | 24.4 | 14.8 | 9.51 | 12.5 | 24.32 ± 0.091 | 25.7 | 87 | 95.8 | 87 ± 2.5 | 83.7 | 101 | 96.8 | 102 | 97.26 ± 0.26 | 82.8 | 12.6 | 25.9 | 10.4 ± 4.4 | 10.6 | 2.63 | 0 |
| O=C(/C=C/c1cccnc1)NCCCCC1CCN(C(=O)c2ccccc2)CC1 [Daporinad] (max concentration tested 1000 nM) | 21.9 | 16.4 | 15.02 ± 0.15 | 18.8 | 31.1 | 25 | 29.8 | 28.6 ± 0.7 | 24.1 | 83.4 | 95.5 | 87.9 ± 6.3 | 70.9 | 101 | 90.9 | 101 | 100.3 ± 0.6 | 93.2 | 0 | 9.24 | 0 | 0 | 0 | 0 |
| CC1=NN(c2ccc(C(=O)O)cc2)C(=O)C1=Cc1ccc(-c2cc(C)c(C)cc2[N+](=O)[O-])o1 [C646] (max concentration tested 25000 nM) | 0 | 0 | 0.311 ± 0.44 | 0 | 0.68 | 0.34 | 0 | 0.301 ± 0.43 | 0 | -4.28 | 1.97 | 9.84 ± 4.1 | -3.92 | 19.6 | 17.2 | -1.27 | 1.13 ± 8.9 | 3.46 | 1.71 | 0 | 2.69 ± 3.8 | 0 | 0 | 0 |
| CCCCCCCCc1ccc(CCC(N)(CO)CO)cc1 [Fingolimod] (max concentration tested 10000 nM) | 7.17 | 6.58 | 7.98 ± 1 | 7.62 | 5.97 | 8.31 | 6.87 | 5.79 ± 0.46 | 6.27 | 101 | 102 | 103 ± 2.5 | 103 | 101 | 101 | 101 | 101.6 ± 0.59 | 103 | 7.44 | 4.94 | 13.3 ± 9.3 | 8.13 | 5.38 | 5.09 |
| CO[C@@H](C(=O)N1Cc2[nH]nc(NC(=O)c3ccc(N4CCN(C)CC4)cc3)c2C1)c1ccccc1 [Danusertib] (max concentration tested 10000 nM) | 10.4 | 5.54 | 8.76 ± 2 | 11.4 | 12.9 | 8.49 | 11.1 | 13.9 ± 0.31 | 8.83 | 90.9 | 52.5 | 66.7 ± 10 | 88.1 | 46.4 | 80.7 | 76.3 | 88.7 ± 1.7 | 85.7 | 7.05 | 3.88 | 1.16 ± 0.24 | 6.43 | 2.75 | 6.94 |
| C/C(=C\c1csc(C)n1)[C@@H]1C[C@@H]2O[C@]2(C)CCC[C@H](C)[C@H](O)[C@@H](C)C(=O)C(C)(C)[C@@H](O)CC(=O)O1 [Patupilone] (max concentration tested 1000 nM) | 25.2 | 36.5 | 24.4 ± 1.7 | 29.1 | 31 | 17.9 | 32.7 | 37.7 ± 0.67 | 28.4 | 73 | 96.8 | 80.9 ± 0.77 | 70 | 78.1 | 42.2 | 91.9 | 92.6 ± 0.95 | 84.4 | 18.8 | 36.6 | 21.9 ± 2.8 | 11.5 | 0 | 23.9 |
